Measured values published in PubChem BioAssay (NCI).
Where “and” joins values, the source holds several entries; their conditions need not be identical. Identical values can stand only once.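 1) Cells in 96-well plates. 2) Compound, 48 h, 5 concentrations. 3) Linear interpolation between surrounding doses. 4) Unreached endpoint = highest concentration. At the GI50, growth is halved. TGI: total growth inhibition.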

Key:
Test in all cases: inhibition of tumour cell growth, NCI panel, 48 h
PC-3 prostate = system: PC-3 prostate
OVCAR-8 ovarian = system: OVCAR-8 ovarian
HS 578T breast = system: HS 578T breast
CAKI-1 renal = system: CAKI-1 renal
NCI-H522 lung = system: NCI-H522 lung
HT29 colon = system: HT29 colon
SNB-75 CNS = system: SNB-75 CNS
MCF7 breast = system: MCF7 breast
A498 renal = system: A498 renal
SF-268 CNS = system: SF-268 CNS

Row | SMILES | GI50 (PC-3 prostate) | TGI (PC-3 prostate) | GI50 (OVCAR-8 ovarian) | TGI (OVCAR-8 ovarian) | GI50 (HS 578T breast) | TGI (HS 578T breast) [µM] | GI50 (CAKI-1 renal) | TGI (CAKI-1 renal) | GI50 (NCI-H522 lung) | TGI (NCI-H522 lung) | GI50 (HT29 colon) | TGI (HT29 colon) | GI50 (SNB-75 CNS) | TGI (SNB-75 CNS) | GI50 (MCF7 breast) | TGI (MCF7 breast) | GI50 (A498 renal) | TGI (A498 renal) | GI50 (SF-268 CNS) | TGI (SF-268 CNS)
1 | COc1cc(-c2nn(-c3ccc(NC(=O)c4ccc(Cl)c(Cl)c4)cc3)cc2-c2ccncc2)ccc1Cl | 6.28 µM | > 100 µM | 5.28 µM | > 100 µM | 4.13 µM | > 100 | 3.67 µM | > 100 µM | > 100 µM | > 100 µM | 2.9 µM | > 100 µM | 7.52 µM | > 100 µM | 5.53 µM | > 100 µM | 5.25 µM | > 100 µM | > 100 µM | > 100 µM
2 | CCN(CC)CCOc1nc2ccc(OC)cc2c2c1-c1ccc(OC)cc1C2=O | 1.3 µM | 2.91 µM | 0.526 µM | 2.26 µM | 1.48 µM | 6.93 | 1.15 µM | 2.88 µM | 0.394 µM | 1.81 µM | 0.545 µM | 1.86 µM | 1.36 µM | 5.4 µM | 0.367 µM | 1.53 µM | 0.802 µM | 2.17 µM | 0.595 µM | 2.02 µM
3 | ClCc1cccc(Cn2cnc3c(Cl)ncnc32)c1 | 4.18 µM | 18.3 µM | 22.1 µM | 42 µM | 3.48 µM | 11.5 | 1.53 µM | 2.93 µM | 18.6 µM | 65.4 µM | 3.25 µM | > 100 µM | 2.09 µM | 4.56 µM | 7.8 µM | 77.7 µM | 17.3 µM | 31.9 µM | 3.53 µM | 15.3 µM
4 | CNc1ccc2nc3ccc(=[N+](C)C)cc-3sc2c1 | 0.41 µM and 0.203 µM | 11.6 µM and 2.87 µM | 0.298 µM and 0.278 µM | 1.79 µM and 1.55 µM | 4.68 µM and 1.98 µM |  | 1.28 µM and 1.4 µM | 9.17 µM and 6.02 µM | 0.291 µM and 0.465 µM | 1.33 µM and 3.79 µM | 2.92 µM and 3.06 µM | 12.2 µM and 12.5 µM | 1.89 µM and 1.34 µM | 7.36 µM and 7.14 µM | 0.801 µM and 0.284 µM | 6.84 µM and 3.62 µM | 2.98 µM and 6.49 µM | 25.4 µM and 28.2 µM | 2.28 µM and 0.465 µM | 18.7 µM and 8.7 µM
5 | C=C1CC2(OC1=O)C(=O)N(CCCCCCCN1C(=O)C3(CC(=C)C(=O)O3)c3ccccc31)c1ccccc12 (stereo not given) | 1.53 µM | 6.58 µM | 1.16 µM | 5.05 µM | 5.92 µM | 32.3 | 1.4 µM | 5.96 µM | 0.82 µM | 1.85 µM | 1.49 µM | 5.4 µM | 6.35 µM | 19.5 µM | 1.35 µM | 6.9 µM | 5.17 µM | 13.1 µM | 3.97 µM | 12 µM
6 | Cc1ccc(CNc2c3ccccc3nc3ccccc23)cc1 | 1.87 µM | 7.11 µM | 2.52 µM | 10.5 µM | 2.46 µM | 6.6 | 1.53 µM | 4.57 µM | 1.67 µM | 4.75 µM | 2.08 µM | 10.7 µM | 0.402 µM | 6.8 µM | 1.99 µM | 5.03 µM | 1.21 µM | 2.92 µM | 2.98 µM | 11.3 µM
7 | CNC(=O)c1cc(OC2CCC(NC(=O)Nc3ccc(Cl)c(C(F)(F)F)c3)CC2)ccn1 (stereo not given) | 3.51 µM | > 44.6 µM | 7.89 µM | 39.6 µM | 11.6 µM | 63.1 | 6.75 µM | 31.9 µM | 4.16 µM | 16.9 µM | 4.25 µM | 16.2 µM | 16 µM | 38.9 µM | 3.48 µM | 18.1 µM | 8.14 µM | 22.1 µM | 13.7 µM | 52 µM
8 | COc1ccc(N=C2CSc3nnc(-c4cc(F)c(Cl)cc4Cl)n3N2)cc1 | 1.17 µM | 13.9 µM | 2.33 µM | 10.7 µM | 1.5 µM | 9 | 1.52 µM | 4.49 µM | 0.296 µM | 0.885 µM | 0.395 µM | 2.11 µM | 0.355 µM | 1.58 µM | 0.464 µM | 19.8 µM | 1.54 µM | 13 µM | 1.69 µM | 21.7 µM
9 | COC(=O)N[C@H]1CCc2c(Br)c(OC)c(OC)c(OC)c2-c2ccc(SC)c(=O)cc21 | < 0.01 µM | 32.6 µM | < 0.01 µM | > 77.2 µM | < 0.01 µM | > 52.1 | < 0.0209 µM | 21.9 µM | < 0.01 µM | 1.22 µM | < 0.01 µM | 18.8 µM | < 0.01 µM | 20.9 µM | < 0.01 µM | 12.4 µM | < 0.01 µM | < 0.01 µM | < 0.01 µM | 16.6 µM
10 | O=[N+]([O-])C1C(c2ccccc2)C12c1ccccc1-c1ccccc12 (stereo not given) | 0.947 µM | > 100 µM | 0.645 µM | > 24.3 µM | 2.28 µM | > 100 | 1.03 µM | > 65.7 µM | 0.68 µM | 13 µM | 0.349 µM | 15.5 µM | 0.612 µM | 14 µM | 0.351 µM | 30.8 µM | 0.316 µM | 3.83 µM | 2.3 µM | 28 µM
11 | CC(=O)n1c(COS(C)(=O)=O)nc2ccccc21 |  | > 100 µM |  | > 100 µM |  | > 100 |  | > 100 µM |  | > 100 µM |  | > 100 µM |  | > 100 µM |  | > 100 µM |  | > 100 µM |  | > 100 µM
12 | Nc1nc(SCc2ccccn2)c2ncn(C3CCCC3)c2n1 |  | > 100 µM |  | > 100 µM |  | 88.5 |  | > 100 µM |  | > 100 µM |  | > 100 µM |  | > 100 µM |  | > 100 µM |  | > 100 µM |  | > 100 µM
13 | COc1cc(O)c([C@@H]2C[C@H](CCc3ccc(O)cc3)O[C@H](c3ccc(O)cc3)C2)c(O)c1C(=O)/C=C/c1ccc(O)cc1 | 2.45 µM | 6.94 µM | 3.17 µM | 10.5 µM | 2.53 µM | 15.4 | 5.76 µM | 18.3 µM | 2.73 µM | 8.52 µM | 3.31 µM | 10.2 µM | 2.86 µM | 8.22 µM | 1.96 µM | 4.61 µM | 4.24 µM | 11.3 µM | 2.86 µM | 24.4 µM
14 | COc1cccc(C2CC(C)(N3CCCC3)Oc3cc4c(cc32)OCO4)c1O (stereo not given) |  | > 76.1 µM |  | > 73.2 µM |  | 57.7 |  | > 100 µM |  | 47.2 µM |  | 45.3 µM |  | 53.9 µM |  | > 91.2 µM |  | > 100 µM |  | > 92.1 µM
15 | COc1ccc(-c2nn3ncccc3c2-c2ccnc(Nc3ccc(Cl)c(C(F)(F)F)c3)n2)cc1 | 6.2 µM | > 25 µM | 8.58 µM | > 25 µM | 9.15 µM | > 25 | 12.4 µM | > 25 µM | 12.4 µM | > 25 µM | 9.88 µM | > 25 µM | > 13.8 µM | > 25 µM | 6.53 µM | > 25 µM | 6.52 µM | > 25 µM | 11.6 µM | > 25 µM
16 | CN1CCN(CN2C(=O)C3C4C=CC(C3C2=O)C2C3C(=O)N(CN5CCN(C)CC5)C(=O)C3C42)CC1 (stereo not given) |  | 97.9 µM |  | 35.7 µM and > 65.3 µM and 59.9 µM |  | > 100 | 44.8 µM and 33.6 µM and 70.6 µM | > 100 µM |  | 39.6 µM and 25.4 µM |  | > 100 µM |  | 79.8 µM and 72.9 µM and 92.1 µM |  | > 100 µM |  | > 100 µM and 97.9 µM |  | 50.6 µM and > 62.6 µM and 33.9 µM
17 | C=CCn1c2c(c3ccccc3c1=O)C(=O)c1ccccc1-2 |  | > 100 µM |  | > 100 µM |  | > 100 |  | > 100 µM |  | > 100 µM |  | > 100 µM |  | > 100 µM |  | > 100 µM |  | > 100 µM |  | > 100 µM
